Values quoted from earlier work as cited in the CATMoS acute toxicity set (Mansouri et al. 2021).
Several values for one entry are separate records, joined by “and”; a condition that tells them apart may be missing. Equal entries are not always repeated.

assay: rat acute oral toxicity; conditions: in vivo
From the text: […]The data set underlying the modeling effort for this project was initially compiled by NICEATM and U.S. EPA’s CCTE. Briefly, LD50 data were collected from rat acute oral systemic toxicity tests, including limit tests, ranges/confidence intervals, and discrete LD50 values. The full data set included 21,200 LD50 entries for 15,688 substances. […] Data were reviewed to ensure that LD50 values with obvious errors in the extracted data such as unit conversion errors (e.g., comma and decimal separator misplacements) were either fixed or removed. After this review, 16,209 LD50 values remained. Many of the chemicals represented had multiple LD50 entries, requiring that a single representative value per Chemical Abstracts Service Registry Number (CASRN) identifier be defined to facilitate modeling efforts. Based on ATWG feedback and to define the representative LD50 as a protective value while accounting for the distribution across multiple LD50s, the median of the lowest quartile was computed using only discrete LD50 values (omitting limit test data and range and confidence interval data). A detailed summary of the data compilation is available online on the NICEATM webpage dedicated to the collaborative modeling project (NTP 2020).
[…][…] For categorical designations, limit test and range/confidence interval LD50 data were integrated wherever possible. As such, the number of chemicals with end point values/calls varies across the modeling end points (Table 3) based on whether chemicals had representative LD50 values and/or other data. If a chemical had both, the representative value was used to determine categorical calls rather than limit test data. Some data were useable only for certain end points and categories depending on the thresholds. For example, ranges that spanned multiple hazard categories were considered only for the binary (very toxic/nontoxic) end points and omitted from rendering a determination for hazard category assignment.
[…]The final data set comprising 11,992 chemicals was split into training and evaluation sets […], respectively. This process was performed semirandomly by ordering chemicals based on the five end points (categorical and continuous LD50 values) and partitioning every fourth record into the evaluation set accordingly. This approach was taken to ensure an equivalent distribution of the LD50 values and the different hazard categories between the training and the evaluation sets without supervised sampling of the chemicals based on structures (Figure 1A). The sources of the chemical structures were also kept equivalent between the two sets, with chemical structures obtained from DSSTox, being the highest quality, representing over 75% of each set (Figure 1B).

In order of rising LD50:
1. FC(F)(F)c1nc2c(Br)c(Br)c(Br)cc2[nH]1  7.18 mg/kg
2. CCC1OC(C)SC1=NOC(=O)NC (stereo not drawn)  15 mg/kg
3. Cc1cc(OC(=O)N(C)C)nn1C(=O)N(C)C  25 mg/kg
4. C[C@H](N)Cc1ccccc1  38 mg/kg
5. O=C(SCc1ccccc1)N1CCOCC1  50 mg/kg
6. CCOP(=S)(OCC)Oc1cc(C)nc2ccccc12  50 mg/kg
7. CC(C(=O)O)c1ccc2c(c1)Cc1cccnc1O2 (stereo not drawn)  59.5 mg/kg
8. CC(=O)Oc1c([N+](=O)[O-])cc([N+](=O)[O-])cc1C(C)(C)C  62 mg/kg
9. CCN(CC)CCCNC(=O)C(C)(C)Oc1ccc(Cl)cc1  150 mg/kg
10. COP(=S)(OC)SCCSC(C)C  150 mg/kg
11. CC1C(=O)C[C@]2(C(C)C)C[C@H]12 (single isomer, unassigned; (-))  192 mg/kg
12. ClC1(Cl)C2(Cl)C3C4(Cl)C1(Cl)C1(Cl)C4(Cl)C(Cl)(Cl)C3(Cl)C21Cl (stereo not drawn)  200 mg/kg
13. CCCCCCc1ccc(C(C[n+]2ccccc2)OCC(CC)CCCC)cc1 (stereo not drawn)  250 mg/kg
14. CC(C)NC(=O)OC1CCN(CCCC(=O)c2ccc(F)cc2)CC1  310 mg/kg
15. CCCCN1CCOCC1  338 mg/kg
16. COc1ccccc1N1CCN(CCCOc2ccc(N)cc2)CC1  416 mg/kg
17. CCSC(=S)N(C)C  550 mg/kg
18. CCNC(=S)OC(C)C  568 mg/kg
19. COCNC(=O)CSP(=S)(OC)OC  600 mg/kg
20. CCOC(=O)Nc1ccc2c(c1)N(C(=O)CCN1CCOCC1)c1ccccc1CC2  623 mg/kg
21. Cc1cc(S(=O)(=O)c2ccccc2)ccc1NS(=O)(=O)C(F)(F)F  633 mg/kg
22. O=c1[nH]c2ccccc2o1  700 mg/kg
23. O=C(Cl)c1cc(Cl)cc(Cl)c1  794 mg/kg
24. NC(=O)c1cc(C(=O)CBr)ccc1O  800 mg/kg
25. CC(COc1ccc(Cl)cc1Cl)C(=O)O (stereo not drawn)  800 mg/kg
26. CCC(C)(C)c1ccc(OCCCCN)c(C(C)(C)CC)c1  800 mg/kg
27. CC(C(=O)O)c1cccc2c(-c3ccccc3)coc12 (stereo not drawn)  950 mg/kg
28. CC(C)(CCl)c1cc(Cl)nnc1Cl  1000 mg/kg
29. CCCCOCCOC(=O)CCCCC(=O)OCCOCCCC  1100 mg/kg
30. CCn1c(=O)oc2ccc(Cl)cc21  1350 mg/kg
31. CC(C)=CC1C(C(=O)OC2CC(=O)C(C3C=CCC3)=C2C)C1(C)C (stereo not drawn)  1410 mg/kg
32. CC(C)CCI  1420 mg/kg
33. Cc1c(-c2ccccc2)oc2c(C(=O)O)cccc2c1=O  1660 mg/kg
34. Cc1cc(C)[nH]n1  1720 mg/kg
35. O=c1ncc2[nH]c(=O)[nH]c2[nH]1  1820 mg/kg
36. CCCCOCC(C)OCC(C)OCC(C)O (stereo not drawn)  1840 mg/kg
37. COCC=O  2330 mg/kg
38. O=C1OCCN1/N=C/c1ccc([N+](=O)[O-])o1  2340 mg/kg
39. C[C@]12CCC(=O)C=C1CC[C@@H]1[C@@H]2CC[C@@]2(C)[C@H]1CC[C@]2(C)O  2500 mg/kg
40. CCCCCC(C=Cn1ccnc1)OCc1ccccc1 (stereo not drawn)  2550 mg/kg
41. CSCCC(O)C(=O)O (stereo not drawn)  3480 mg/kg
42. O=c1nc[nH]c2c1ncn2[C@@H]1O[C@H](COP(=O)(O)OP(=O)(O)O)[C@@H](O)[C@H]1O  3790 mg/kg
43. O=P(CCn1c(Cc2ccccc2)nc2ccccc21)(OCCCl)OCCCl  6200 mg/kg
44. CCCCC(CC)CCl (stereo not drawn)  7340 mg/kg
45. CC1CCC(=O)O1 (stereo not drawn)  8800 mg/kg
46. O=C1c2ccccc2C(=O)c2c1cccc2S(=O)(=O)O  20000 mg/kg

In the case of `CC[C@@H]1C(=O)OC[C@@H]1Cc1cncn1C`, the LD50 is listed as 911 mg/kg and 402 mg/kg.
In the case of `CN1CCCC(n2nc(Cc3ccc(Cl)cc3)c3ccccc3c2=O)CC1` (stereo not drawn), the LD50 is listed as 310 mg/kg and 580 mg/kg.
